Data taken from patent US20240132503A1, “SALT FORM AND CRYSTAL FORM OF PYRAZOLE SUBSTITUTED IMIDAZO[1,2- A]QUINOXALINE DERIVATIVE” (OCUMENSION THERAPEUTICS (SUZHOU) CO., LTD, priority 2021, published 2024).

Legend:
[1] = target: KDR (VEGFR-2) protein kinase (Homo sapiens (Human), UniProt P35968); test: In vitro evaluation of inhibitory activity against KDR (VEGFR-2) protein kinase (ADP-Glo kinase assay); type: biochemical
Description: The KDR Kinase Kit was designed to use Kinase-Glo® MAX as a teat reagent to measure KDR kinase activity, and the IC50 value of the compound was used as an indicator for compound screening and analysis.
ADP-GLO™ Kinase Assay is an assay reaction for measuring adenosine diphosphate formed by the kinase by using a luminescent kinase; and ADP was converted into ATP, that is, conversion into a light signal via Ultra-Glo™ Luciferase. The light signal was positively correlated with the quantity of ADP and kinase activity. Such assay was very suitable for determining the activity of the compound, making the assay ideal for primary screening and a kinase selectivity assay. The ADP-Glo™ Kinase Assay can be used to monitor the activity of almost all ADP-producing enzymes (for example, a kinase or ATPase): • 1) Enzyme, substrate, ATP and inhibitors were diluted in kinase buffer; • 2) 384-well plate: 1 μL of inhibitor or (5% dimethyl sulfoxide solution) 2 μL of KDR enzyme, and 2 μL of substrate/ATP mixture; • 3) The 384-well plate was incubated at room temperature for 60 minutes; • 4) 5 μL of ADP-GLO™ reagent was added; • 5) The 384-well plate was incubated at room temperature for 40 minutes; • 6) 10 μL of kinase test reagent was added; • 7) The 384-well plate was incubated at room temperature for 30 minutes; • 8) Lumination (integration time: 0.5 to 1 second) was recorded. […]

[2] = Solid stability test of crystal form A (influencing factors and accelerated conditions; HPLC purity and XRPD); type: physicochemical
Description: All the stability samples were subjected to XRPD detection to detect changes in crystal forms.
About 10 mg of the crystal form was accurately weighed, put in a dry and clean glass bottle, spread into a thin layer, covered with aluminum foil with small pierced holes, and put under conditions of the influencing factor test and accelerated conditions. A sample under sunlight conditions (1200000 Lux visible light, and 200 W ultraviolet light) was put in a transparent glass bottle and fully exposed, and a sample used for XRPD detection was put separately.
After the sample was taken out by a time point, the glass bottle was covered with a lid, sealed with parafilm, and stored in a refrigerator at −20° C. During sample preparation, the sample was taken out of the refrigerator and recovered to room temperature, 10 mL of 80% ACN was added, and the sample was dissolved by ultrasonication for 2 minutes to obtain a solution at a concentration of about 1 mg/mL. A liquid phase was used for sample analysis, and the test result was compared with an initial test result on Day 0.
Preparation of a standard solution on Day 0: About 10 mg of the crystal form was weighed, put into a 10 mL volumetric flask, dissolved in 80% acetonitrile and diluted to the scale.
In addition, all the stability samples were subjected to the HPLC tests.

[3] = 40° C., relative humidity 75%, opened, 1 months
[4] = 40° C., relative humidity 75%, opened, 2 months
[5] = 40° C., relative humidity 75%, opened, 3 months
[6] = 60° C., relative humidity 75%, opened, 1 month
[7] = 60° C., relative humidity 75%, opened, 2 months
[8] = Control group kept in the dark, wrapped with tin foil
[9] = High humidity (relative humidity 92.5%, opened), 1 week
[10] = High humidity (relative humidity 92.5%, opened), 2 week
[11] = High temperature (60° C., opened), 1 week
[12] = High temperature (60° C., opened), 2 week
[13] = Visible light + ultraviolet light (ICH condition), visible 1200000 lux·hrs

Sequence of KDR (VEGFR-2) protein kinase (P35968 20-1356): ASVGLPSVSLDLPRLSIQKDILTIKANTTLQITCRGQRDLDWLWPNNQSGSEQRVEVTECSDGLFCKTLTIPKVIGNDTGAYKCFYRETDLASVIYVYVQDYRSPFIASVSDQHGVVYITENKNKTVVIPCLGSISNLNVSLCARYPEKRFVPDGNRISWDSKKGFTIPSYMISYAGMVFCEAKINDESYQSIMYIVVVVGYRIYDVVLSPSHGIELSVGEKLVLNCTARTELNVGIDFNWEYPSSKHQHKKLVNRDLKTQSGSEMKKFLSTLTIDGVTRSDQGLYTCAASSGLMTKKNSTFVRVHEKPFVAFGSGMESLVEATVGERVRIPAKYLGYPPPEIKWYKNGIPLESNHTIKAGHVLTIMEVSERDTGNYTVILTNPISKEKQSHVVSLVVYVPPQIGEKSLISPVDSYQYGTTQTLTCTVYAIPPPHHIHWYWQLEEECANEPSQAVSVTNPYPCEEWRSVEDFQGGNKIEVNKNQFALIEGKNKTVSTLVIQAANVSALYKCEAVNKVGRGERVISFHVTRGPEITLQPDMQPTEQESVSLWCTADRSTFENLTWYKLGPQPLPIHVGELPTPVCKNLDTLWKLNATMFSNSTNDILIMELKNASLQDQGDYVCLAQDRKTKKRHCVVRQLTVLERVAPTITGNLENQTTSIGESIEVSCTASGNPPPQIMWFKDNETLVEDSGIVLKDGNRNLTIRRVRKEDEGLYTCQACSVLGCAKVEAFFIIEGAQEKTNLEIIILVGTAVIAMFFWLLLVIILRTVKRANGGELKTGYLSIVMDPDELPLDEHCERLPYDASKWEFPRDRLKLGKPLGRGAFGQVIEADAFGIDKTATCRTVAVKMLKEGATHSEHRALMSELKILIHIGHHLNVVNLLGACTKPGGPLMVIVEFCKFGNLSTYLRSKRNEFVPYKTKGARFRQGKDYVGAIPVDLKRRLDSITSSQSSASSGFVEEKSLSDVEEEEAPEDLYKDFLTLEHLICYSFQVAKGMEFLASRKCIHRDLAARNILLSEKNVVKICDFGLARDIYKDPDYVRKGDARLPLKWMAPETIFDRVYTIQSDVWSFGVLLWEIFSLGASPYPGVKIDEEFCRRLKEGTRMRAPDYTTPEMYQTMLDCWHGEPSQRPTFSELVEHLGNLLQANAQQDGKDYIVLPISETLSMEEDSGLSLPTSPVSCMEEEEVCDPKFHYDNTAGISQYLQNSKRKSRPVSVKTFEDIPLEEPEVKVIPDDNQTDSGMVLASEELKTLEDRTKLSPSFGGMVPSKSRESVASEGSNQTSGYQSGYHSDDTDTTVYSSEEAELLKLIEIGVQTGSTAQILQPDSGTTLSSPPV

c1cn2c(n1)c(Nc1ccc(N3CCOCC3)cc1)nc1ccc(-c3cn[nH]c3)cc12
IC50 [1]: 28 nM
inhibitory activity against KDR (VEGFR-2) ([1]; conclusion in words): good inhibitory activity
Crystal form (XRPD) [2, 3]: Crystal form A
Purity (area %) [2, 3]: 99.12 area %
Crystal form (XRPD) [2, 4]: Crystal form A
Purity (area %) [2, 4]: 99.06 area %
Crystal form (XRPD) [2, 5]: Crystal form A
Purity (area %) [2, 5]: 99.04 area %
Crystal form (XRPD) [2, 6]: Crystal form A
Purity (area %) [2, 6]: 99.15 area %
Crystal form (XRPD) [2, 7]: Crystal form A
Purity (area %) [2, 7]: 99.03 area %
Crystal form (XRPD) [2, 8]: Crystal form A
Purity (area %) [2, 8]: 99.12 area %
Crystal form (XRPD) ([2]; Day 0): Crystal form A
Purity (area %) ([2]; Day 0): 99.05 area %
Crystal form (XRPD) [2, 9]: Crystal form A
Purity (area %) [2, 9]: 99.03 area %
Crystal form (XRPD) [2, 10]: Crystal form A
Purity (area %) [2, 10]: 99.11 area %
Crystal form (XRPD) [2, 11]: Crystal form A
Purity (area %) [2, 11]: 98.99 area %
Crystal form (XRPD) [2, 12]: Crystal form A
Purity (area %) [2, 12]: 99.10 area %
Crystal form (XRPD) [2, 13]: Crystal form A
Purity (area %) [2, 13]: 99.12 area %
change in purity and crystal form ([2]; all stability conditions (high temperature, high humidity and sunlight)): no significant change
chemical stability ([2]; conclusion in words): good chemical stability
